In patent US9133181B2, “Substituted 6-(4-hydroxy-phenyl)-1H-pyrazolo[3,4-b]pyridine derivatives as kinase inhibitors” (SANOFI, priority 2012, dated 2015):

Each molecule was assayed against T1, human full-length recombinant PKC βII (Homo sapiens, UniProt P05771) (assay: Determination of PKC βII inhibition (Caliper mobility shift kinase assay)). Settings: final compound concentration 1.14 μM (±0.15 μM); 60 min incubation at 32° C.
T1 construct: Active human full-length recombinant PKC βII; purchased Invitrogen GmbH, Darmstadt, Germany
Format: biochemical
Experimental: Determination of PKC βII Inhibition
PKC βII inhibition was determined according to the following protocol:
Active human full-length recombinant PKC βII and the peptide substrate, Fluorescein-RFARKGSLRQKNV, were purchased from Invitrogen GmbH, Darmstadt, Germany. Adenosine-5′-triphosphate (ATP), bovine serum albumine (BSA), dimethylsulphoxide (DMSO), 4-(2-hydroxyethyl)piperazine-1-ethanesulfonic acid (Hepes), Triton X-100, 1,2-Dioleoyl-sn-glycerol (DAG), L-α-Phosphatidyl-L-serine (PS), calcium chloride (CaCl2), and Pluronic F-68 were purchased from Sigma-Aldrich, Munich, Germany. Magnesium chloride, 1 M sodium hydroxide solution, 1M hydrochloric acid solution and EDTA were obtained from Merck Biosciences, Darmstadt, Germany.
Test compounds were diluted to three times the test concentration in buffer 1 (30 mM Hepes-NaOH, pH 7.4, 0.01% Pluronic F-68 and 3% (v/v) DMSO). The […] enzyme was diluted to a concentration of 30 ng/ml in buffer 2 (30 mM Hepes-NaOH, pH 7.4, 15 mM MgCl2, 150 μM CaCl2, 150 μg/ml PS, 60 μg/ml DAG, and 0.045% (w/v) Triton X-100). The peptide substrate and ATP were diluted to concentrations of 3 μM and 120 μM, respectively, in buffer 2. Two μl of the compound solution were mixed with 2 μl of the diluted enzyme in a 384-well small volume microtiter plate (Greiner, Bio-One, Frickenhausen, Germany), and the kinase reaction was initiated by addition of 2 μl of the solution containing peptide substrate and ATP. After 60 min incubation at 32° C., the reaction was stopped by addition of 20 μl of a solution containing 130 mM Hepes-NaOH, pH 7.4, 0.0195% (v/v) Brij-35, 6.5 mM EDTA, 0.13% chip coating reagent 3 (Caliper Lifescience Inc, Hopkinton, Mass.) and 6.5% (v/v) DMSO. Phosphorylation of the substrate peptide was then detected on a Caliper 3000 instrument essentially as described by Pommereau et al (J. Biomol. Screening 2004, 9(5), 409-416). Separation conditions were as follows: Pressure −0.8 psi, upstream voltage −3000 V, downstream voltage −800 V. Positive controls (buffer 1 instead of compound) and negative controls (buffer 1 instead of compound and buffer 2 instead of kinase solution) were run in parallel on each plate. Fractional turnover (R) was determined as the height of the peak of the phosphorylated peptide product divided by the sum of the unphosphorylated substrate and phosphorylated product peak heights. Percent-inhibition values for the test compounds were determined using the formula % Inhibition=100*(1−(Rcompound−Rnegative control)/(Rpositive control−Rnegative control).
In the following table % inhibition values observed with example compounds at a final concentration of 1.14 μM (±0.15 μM) are listed: […]

T1 sequence (P05771 1-673 isoform P05771-2): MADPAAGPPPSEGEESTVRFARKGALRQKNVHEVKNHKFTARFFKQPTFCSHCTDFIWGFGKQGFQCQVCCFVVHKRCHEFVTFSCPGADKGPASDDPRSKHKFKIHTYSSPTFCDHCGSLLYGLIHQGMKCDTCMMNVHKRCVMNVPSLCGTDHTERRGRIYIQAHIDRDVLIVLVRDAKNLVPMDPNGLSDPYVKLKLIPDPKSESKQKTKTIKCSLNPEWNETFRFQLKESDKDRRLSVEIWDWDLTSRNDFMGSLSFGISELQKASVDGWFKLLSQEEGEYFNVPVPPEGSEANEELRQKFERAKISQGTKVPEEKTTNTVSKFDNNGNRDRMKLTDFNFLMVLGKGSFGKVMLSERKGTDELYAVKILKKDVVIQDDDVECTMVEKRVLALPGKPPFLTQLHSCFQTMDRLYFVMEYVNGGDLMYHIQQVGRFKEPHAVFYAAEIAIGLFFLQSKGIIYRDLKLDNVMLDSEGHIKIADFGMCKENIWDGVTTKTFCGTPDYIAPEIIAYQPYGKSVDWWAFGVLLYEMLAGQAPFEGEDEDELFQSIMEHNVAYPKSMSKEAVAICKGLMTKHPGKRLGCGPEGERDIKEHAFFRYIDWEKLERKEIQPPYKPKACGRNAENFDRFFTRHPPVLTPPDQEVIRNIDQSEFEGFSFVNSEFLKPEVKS

Compound	% Inhibition [%]	inhibition at 1.14 µM [%]
Cc1n[nH]c2nc(-c3ccc(O)cc3F)cc(CN3CCNCC3c3ccccc3)c12 (centres unmarked) [Example 1, 3-Fluoro-4-[3-methyl-4-(2-phenyl-piperazin-1-ylmethyl)-1H-pyrazolo[3,4-b]pyridin-6-yl]-phenol]		95
Cc1n[nH]c2nc(-c3ccc(O)cc3F)cc(CN3CCNCC3c3ccc(C(C)C)cc3)c12 (centres unmarked) [Example 2, 3-Fluoro-4-{4-[2-(4-isopropyl-phenyl)-piperazin-1-ylmethyl]-3-methyl-1H-pyrazolo[3,4-b]pyridin-6-yl}-phenol]		65
Cc1n[nH]c2nc(-c3ccc(O)cc3F)cc(CN3CCNCC3c3ccc(C(F)(F)F)cc3)c12 (centres unmarked) [Example 3]		68
Cc1n[nH]c2nc(-c3ccc(O)cc3F)cc(CN3CCNCC3c3ccc(F)cc3)c12 (centres unmarked) [Example 4, 3-Fluoro-4-{4-[2-(4-fluoro-phenyl)-piperazin-1-ylmethyl]-3-methyl-1H-pyrazolo[3,4-b]pyridin-6-yl}-phenol]		94
Cc1n[nH]c2nc(-c3ccc(O)cc3F)cc(CN3CCNCC3C(F)(F)F)c12 (centres unmarked) [Example 5, 3-Fluoro-4-[3-methyl-4-(2-trifluoromethyl-piperazin-1-ylmethyl)-1H-pyrazolo[3,4-b]pyridin-6-yl]-phenol]		109
Cc1n[nH]c2nc(-c3ccc(O)cc3F)cc(CN3CCNCC3c3cccc(F)c3)c12 (centres unmarked) [Example 6, 3-Fluoro-4-{4-[2-(3-fluoro-phenyl)-piperazin-1-ylmethyl]-3-methyl-1H-pyrazolo[3,4-b]pyridin-6-yl}-phenol]		91
Cc1n[nH]c2nc(-c3ccc(O)cc3F)cc(CN3CCNCC34CCCC4)c12 [Example 7, 4-[4-(6,9-Diaza-spiro[4.5]dec-6-ylmethyl)-3-methyl-1H-pyrazolo[3,4-b]pyridin-6-yl]-3-fluoro-phenol]		103
Cc1n[nH]c2nc(-c3ccc(O)cc3F)cc(CN3CCNCC3c3cccc(C(F)(F)F)c3)c12 (centres unmarked) [Example 8, 3-Fluoro-4-{3-methyl-4-[2-(3-trifluoromethyl-phenyl)-piperazin-1-ylmethyl]-1H-pyrazolo[3,4-b]pyridin-6-yl}-phenol]		92
Cc1n[nH]c2nc(-c3ccc(O)cc3F)cc(CN3CCNCC3c3cc(F)cc(F)c3)c12 (centres unmarked) [Example 9, 4-{4-[2-(3,5-Difluoro-phenyl)-piperazin-1-ylmethyl]-3-methyl-1H-pyrazolo[3,4-b]pyridin-6-yl}-3-fluoro-phenol]		81
Cc1n[nH]c2nc(-c3ccc(O)cc3F)cc(CN3CCNCC3c3ccccc3F)c12 (centres unmarked) [Example 10, 3-Fluoro-4-{4-[2-(2-fluoro-phenyl)-piperazin-1-ylmethyl]-3-methyl-1H-pyrazolo[3,4-b]pyridin-6-yl}-phenol]		102
Cc1n[nH]c2nc(-c3ccc(O)cc3F)cc(CN3CC(C)NCC3(C)C)c12 (centres unmarked) [Example 11, 3-Fluoro-4-[3-methyl-4-(2,2,5-trimethyl-piperazin-1-ylmethyl)-1H-pyrazolo[3,4-b]pyridin-6-yl]-phenol]		104
Cc1n[nH]c2nc(-c3ccc(O)cc3F)cc(CN3CCNCC3(C)c3ccccc3)c12 (centres unmarked) [Example 12, 3-Fluoro-4-[3-methyl-4-(2-methyl-2-phenyl-piperazin-1-ylmethyl)-1H-pyrazolo[3,4-b]pyridin-6-yl]-phenol]		94
Cc1n[nH]c2nc(-c3ccc(O)cc3F)cc(CN3CCNCC3)c12 [Example 13, 3-Fluoro-4-(3-methyl-4-piperazin-1-ylmethyl-1H-pyrazolo[3,4-b]pyridin-6-yl)-phenol]		81
Cc1n[nH]c2nc(-c3ccc(O)cc3F)cc(CN3CCNCC34CC4)c12 [Example 14, 4-[4-(4,7-Diaza-spiro[2.5]oct-4-ylmethyl)-3-methyl-1H-pyrazolo[3,4-b]pyridin-6-yl]-3-fluoro-phenol]		98

Further lines, results first:

% Inhibition [%]	inhibition at 1.14 µM [%]	Compound
90		Cc1n[nH]c2nc(-c3ccc(O)cc3F)cc(CN3C[C@@H](c4ccccc4)NC[C@@H]3C)c12 (relative stereo) [Example 29, 3-Fluoro-4-[3-methyl-4-(trans-2-methyl-5-phenyl-piperazin-1-ylmethyl)-1H-pyrazolo[3,4-b]pyridin-6-yl]-phenol]
58		Cc1n[nH]c2nc(-c3ccc(O)cc3)cc(CN3C[C@@H](C)NC[C@@H]3c3ccccc3)c12 (relative stereo) [Example 43, 4-[3-Methyl-4-(trans-5-methyl-2-phenyl-piperazin-1-ylmethyl)-1H-pyrazolo[3,4-b]pyridin-6-yl]-phenol]
	96	Cc1n[nH]c2nc(-c3ccc(O)cc3F)cc(CN3CC(C)(C)NCC34CCCC4)c12 [Example 15, 4-[4-(8,8-Dimethyl-6,9-diaza-spiro[4.5]dec-6-ylmethyl)-3-methyl-1H-pyrazolo[3,4-b]pyridin-6-yl]-3-fluoro-phenol]
	99	Cc1n[nH]c2nc(-c3ccc(O)cc3F)cc(CN3CC(C)NCC34CCCC4)c12 (centres unmarked) [Example 16, 3-Fluoro-4-[3-methyl-4-(8-methyl-6,9-diaza-spiro[4.5]dec-6-ylmethyl)-1H-pyrazolo[3,4-b]pyridin-6-yl]-phenol]
	98	Cc1n[nH]c2nc(-c3ccc(O)cc3F)cc(CN3CCNCC34CCC4)c12 [Example 17, 4-[4-(5,8-Diaza-spiro[3.5]non-5-ylmethyl)-3-methyl-1H-pyrazolo[3,4-b]pyridin-6-yl]-3-fluoro-phenol]
	98	CCC1(CC)CNCCN1Cc1cc(-c2ccc(O)cc2F)nc2[nH]nc(C)c12 [Example 18, 4-[4-(2,2-Diethyl-piperazin-1-ylmethyl)-3-methyl-1H-pyrazolo[3,4-b]pyridin-6-yl]-3-fluoro-phenol]
	99	Cc1n[nH]c2nc(-c3ccc(O)cc3F)cc(CN3CC(C)NCC3C(F)(F)F)c12 (centres unmarked) [Example 19, 3-Fluoro-4-[3-methyl-4-(5-methyl-2-trifluoromethyl-piperazin-1-ylmethyl)-1H-pyrazolo[3,4-b]pyridin-6-yl]-phenol]
	98	Cc1n[nH]c2nc(-c3ccc(O)cc3F)cc(CN3CC(C(C)C)NCC3(C)C)c12 (centres unmarked) [Example 20, 3-Fluoro-4-[4-(5-isopropyl-2,2-dimethyl-piperazin-1-ylmethyl)-3-methyl-1H-pyrazolo[3,4-b]pyridin-6-yl]-phenol]
	93	CCC1(C)CN(Cc2cc(-c3ccc(O)cc3F)nc3[nH]nc(C)c23)C(C)(C)CN1 (centres unmarked) [Example 21, 4-[4-(5-Ethyl-2,2,5-trimethyl-piperazin-1-ylmethyl)-3-methyl-1H-pyrazolo[3,4-b]pyridin-6-yl]-3-fluoro-phenol]
	89	CCC1(CC)CN(Cc2cc(-c3ccc(O)cc3F)nc3[nH]nc(C)c23)C(C)(C)CN1 [Example 22, 4-[4-(5,5-Diethyl-2,2-dimethyl-piperazin-1-ylmethyl)-3-methyl-1H-pyrazolo[3,4-b]pyridin-6-yl]-3-fluoro-phenol]
	99	Cc1n[nH]c2nc(-c3ccc(O)cc3F)cc(CN3CC(C)(C4CC4)NCC3(C)C)c12 (centres unmarked) [Example 23, 4-[4-(5-Cyclopropyl-2,2,5-trimethyl-piperazin-1-ylmethyl)-3-methyl-1H-pyrazolo[3,4-b]pyridin-6-yl]-3-fluoro-phenol]
	94	Cc1n[nH]c2nc(-c3ccc(O)cc3F)cc(CN3CCCC(C)(N)C3)c12 (centres unmarked) [Example 24, 4-[4-(3-Amino-3-methyl-piperidin-1-ylmethyl)-3-methyl-1H-pyrazolo[3,4-b]pyridin-6-yl]-3-fluoro-phenol]
	102	Cc1n[nH]c2nc(-c3ccc(O)cc3F)cc(CN3CCCNC(C)C3)c12 (centres unmarked) [Example 25, 3-Fluoro-4-[3-methyl-4-(3-methyl-[1,4]diazepan-1-ylmethyl)-1H-pyrazolo[3,4-b]pyridin-6-yl]-phenol]
	92	Cc1n[nH]c2nc(-c3ccc(O)cc3F)cc(CN3CCNCC3(C)C)c12 [Example 26, 4-[4-(2,2-Dimethyl-piperazin-1-ylmethyl)-3-methyl-1H-pyrazolo[3,4-b]pyridin-6-yl]-3-fluoro-phenol]
	83	Cc1n[nH]c2nc(-c3ccc(O)cc3F)cc(CN3C[C@@H](C)NC[C@@H]3C)c12 [Example 27, 4-[4-((2S,5R)-2,5-Dimethyl-piperazin-1-ylmethyl)-3-methyl-1H-pyrazolo[3,4-b]pyridin-6-yl]-3-fluoro-phenol]
